The values that follow are results of earlier work, collected in PMC12177174 (iScience, 2025).

Read-outs that look alike come from different tables or passages of the source.

In one data set the test system is bone mineral density. To be noted: cited from earlier work.
For another data set, the system named is tumor. The settings on record: cited from earlier work.
The conditions of data set [1]: cited from earlier work.
In another data set the test system is tumor cell proliferation. To be noted: cited from earlier work.
For data set [2] the following is noted: cited from earlier work. This is another data set of the same source.
Another data set has as its system heart repair. To be noted: cited from earlier work.
The next data set relates to Axin2 mRNA. The settings on record: cited from earlier work.
A further data set concerns skin fibrosis. The settings on record: cited from earlier work.
For data set [3] the following is noted: 20 patients, median 22 weeks treatment; cited from earlier work.

Consider `Cn1c(=O)c2c(ncn2CC(=O)Nc2ccc(-c3ccccc3)nn2)n(C)c1=O` [ETC-159], for which, in the data set with bone mineral density, the bone mineral density entry was “caused loss of bone mineral density”. Besides, in the data set on tumor, the tumor response entry is “induces tumor regression”. Besides, in [1], the participants reporting dysgeusia is given as at most 50%. Also, in data set [1] (patients with advanced cancer), the “circulating CTX-1 levels” value is listed as “increased circulating CTX-1 levels”.
`Cc1c(-c2ccnc(C(F)(F)F)c2)ncn1CC(=O)Nc1ccc(-c2cnccn2)cn1` [RXC004]: the tumor cell proliferation result with tumor cell proliferation is on record as “inhibits tumor cell proliferation”.
With `Cc1cc(-c2ncc(CC(=O)Nc3ccc(-c4cnccn4)cn3)cc2C)ccn1` [WNT974], the bone mineral density entry with bone mineral density is listed as “caused loss of bone mineral density”. Moreover, the participants reporting dysgeusia in data set [2] is given as at most 50%. Moreover, the “participants with reduced tumor size” value in data set [2] (various advanced cancers) was 74%. The “heart repair following cardiac injury” value in the data set with heart repair was “promoted heart repair”. Besides, the “mean reduction in AXIN2 mRNA levels in skin biopsies” value in the data set on Axin2 mRNA was 50%–60%. Moreover, the skin fibrosis result with skin fibrosis was “prevented progression of skin fibrosis”. In addition, the “patients who developed fragility fractures” value in data set [3] was 45%.
